The values below come from paper PMC7520961, “Safety evaluation of the interchangeable use of robenacoxib in commercially-available tablets and solution for injection in cats” (BMC Veterinary Research, 2020).

SMILES strings stand for the structures.

Series [1] can be described thus: Dissolution of robenacoxib tablets with or without gelatin capsule. In kind it is physicochemical. The following applies: by 40 minutes; tablets whether or not encapsulated in gelatin capsules; data not shown.
Series [2] has as its system cats. The following applies: in vivo.
Description: Necropsies were performed in cage order. All animals were euthanized on Day 38 by intramuscular sedation with ketamine followed approximately 30 min later in a different room by an intravenous overdose of sodium pentobarbital solution and exsanguination, under procedures approved by a veterinary pathologist and according to the study site’s standard operating procedures. After a complete post-mortem evaluation, tissue samples were collected for histopathological analysis. Additionally, the following organs were weighed before tissues were collected: adrenal gland, aorta, brain, epididymis, heart, kidney, liver, lung with bronchi, ovary, pituitary, prostate, salivary gland (mandibular), spleen, testis, thymus, thyroid gland (with parathyroid), and uterus with cervix. In order to correct for body weight and size, the ratio of organ weight to body weight and brain weight was calculated for each animal. Tissues, including any gross lesions identified during the necropsy, were fixed in neutral buffered formalin, except the eye including optic nerve and testes were fixed using a modified Davidson’s fixative [36]. Tissue sections were stained with hematoxylin and eosin and evaluated by a board-certified veterinary pathologist. A bone marrow smear was collected from a rib at necropsy and analyzed qualitatively by a board-certified veterinary clinical pathologist.
The test system of the next series is anesthetized cats. The arrangement: method as in ref 24 = [24]; 24. Panteri A Deurinck M Seewald W Gerber S King JN Desevaux C Safety of intravenous Robenacoxib (Onsior) in cats J Vet Pharmacol Ther 2015 38 S1 149. The following applies: single dose SC 2 mg/kg or 2 or 4 mg/kg IV, 5 or 60 min post administration; cited from earlier work.
The test system of series [3] is cats. Kind of series: Buccal mucosal bleeding time (BMBT). In kind it is in vivo. The following applies: one 2X cat. How it is done:
Buccal mucosal bleeding times (BMBT) were measured on all animals on Days − 5 and 36 following ECG examinations while the animals were sedated. The upper lip was everted and a Surgicutt incision device was used to create a small incision (approximately 1 mm in depth and 3.5 mm in length). Blood flow from the incision site was blotted using filter paper below the incision. The elapsed time from the triggering of the device until blood no longer appeared on the filter paper was recorded as the bleed time. Clinical pathology evaluations were conducted on all animals on Days − 13 and − 6 and prior to dosing on Days 13 and 37. Because reference values given by the laboratory were (slightly) different for males and females, they were combined (i.e. lower of the two lower bounds to higher of the two upper bounds) for the tables. […] Hematology variables were determined using an Advia 120 or Advia 2120 (Siemens, Munich, Germany), light microscope, or sediplast column (Polymedco, NY, US). Coagulation variables were determined using a Stago Compact (Diagnostica Stago, Parsippany, NJ, US), clinical chemistry variables were determined using an Olympus AU2700 or AU640e (Olympus Diagnostics, Southall, UK), and urinalysis variables were determined using a Clinitek-500 or Atlas (Siemens, Munich, Germany), Reichert VET 360 (Reichert Technologies, Buffalo, New York, USA), or light microscope.

Series [4] concerns cats. The following applies: in vivo. This is another data set of the same source.
The test system of series [5] is cats. The following applies: in vivo. The protocol:
Cageside observations were performed twice daily on all animals for morbidity, mortality, injury, and the availability of food and water. Detailed clinical observations were performed by trained technical staff twice per day beginning on Day − 2. Observations were at least six hours apart with the first occurring 1–2 hours after dose administration. Observations included, but were not limited to eyes, mucus membranes, respiratory system, circulatory system, autonomic and central nervous systems, somatomotor activity and behavior pattern. Body weight was measured on Day − 19 and weekly beginning Day − 14. Individual food consumption was measured daily beginning on Day − 7. Injection sites were evaluated for erythema, edema, heat, and pain response (i.e., vocalization upon palpation using a 3-point Likert scale) on each day of subcutaneous dosing prior to and 7 to 8 hours after dosing and once daily for three days following each dose administration. If any injection site was abnormal at the end of the observation period, additional assessments were carried out until the cat returned to normal or until end of the study.
The source holds these as a separate data set.

For series [6], the system named is healthy adult domestic short-hair cats. The arrangement: method as in ref 13 = [13]; 13. US Food and Drug Administration Freedom of Information Summary: Original New Animal Drug Application NADA 141–443 (Onsior Robenacoxib Injection Cats) 2015. The following applies: 10 mg/kg robenacoxib solution for injection for three consecutive days; cited from earlier work.
Series [7] has as its system cats. Further details: method as in ref 12 = [12]; 12. US Food and Drug Administration Freedom of Information Summary: Original New Animal Drug Application NADA 141–320 (Onsior Robenacoxib Tablets for Cats) 2011. The following applies: six-month target animal safety study, oral robenacoxib at 1, 3 and 5X; cited from earlier work.
In series [8] the test system is cats. The following applies: in vivo. The source holds these as a separate data set.

Regarding `CCc1ccc(Nc2c(F)c(F)cc(F)c2F)c(CC(=O)O)c1` [robenacoxib], in series [1], the robenacoxib dissolved entry is on record as “approximately 93%”. In addition, in the series on cats [2], the Robenacoxib-related microscopic findings result is recorded as “increased injection site subacute/chronic inflammation”, the “absolute liver weight increase compared to control” value is recorded as 14% and the “severity of injection site inflammation observations” value is “minimal”. Besides, in the series on anesthetized cats, the “electrocardiographic changes (including QT interval)” value is given as “no electrocardiographic changes”. Further, the “increase in BMBT value compared to pre-treatment value” in the series on cats [3] is on record as “approximately seven-fold”. Besides, in the series on cats [4], the “QT duration vs control (RR interval as covariate)” value was “No prolongation”; the “QT interval, average post-treatment” value is “approximately 160 ms”; the “QT interval, average pretest values” is reported as “approximately 140 ms”; the “mean baseline heart rate” value is “approximately 305 bpm”. Also, in the series on cats [4], the “mean heart rate post treatment” value is recorded as 260-277 bpm and the “qualitative assessment of electrocardiograms” value is “qualitatively normal”. For the same compound, in the series with cats [5], the Emesis result is “observed once on Days 36 and 37”; the “duration of injection site edema post injection” value is recorded as “up to 120 hours”; the “injection site erythema, heat or pain” value is reported as “no signs”; the “time to resolution of injection site changes” value is ≤ 72 h. In addition, the “occurrence of injection site edema vs control animals” value with cats [5] (sc) is recorded as “significantly higher”. Also, in series [6], the injection site observations result is on record as “transient, fluid-filled, painless enlargements at the injection sites that disappeared over a period of 72 hours” and the “microscopic findings at injection sites” value was “minimal subcutaneous inflammatory cell infiltration”. Moreover, in the series on cats [7], the QT interval effect entry is given as “dose-dependent QT prolongation” and the arrhythmias result was “no arrhythmias were documented”. For the same compound, the “opthalmoscopic, physical and neurological examinations” value in the series with cats [8] is “no treatment-related effects”.
